From patent US9255094B2, “Pyrido[4,3-B]indoles and methods of use” (Medivation Technologies, Inc., priority 2009, dated 2016)

Assays:
[1] = biological target: human recombinant dopamine D2L receptor (Homo sapiens, UniProt P14416); assay: Dopamine D2L radioligand binding assay ([3H]Spiperone); settings: compound at 1 μM, 0.16 nM [3H]Spiperone, CHO cells, read-out: Percent Inhibition of ligand binding, Dopamine (1μM)
Method: (§1) Compounds of the invention were incubated with 0.16 nM [^3H]Spiperone for 120 min at 25° C. Non-specific binding was estimated in the presence of 10 μM Haloperidol. Receptor proteins were filtered and washed, the filters were then counted to determine [^3H]Spiperone specifically bound. Compounds were screened at 1 μM or lower, using 1% DMSO as vehicle. Biochemical assay results are presented as the percent inhibition of specific binding in Table 3.

[2] = biological target: T1, human recombinant serotonin (5-Hydroxytryptamine) 5-HT2C receptor (Homo sapiens, UniProt P28335); assay: Serotonin 5-HT2C radioligand binding assay ([3H]Mesulergine); settings: 1 nM [3H]Mesulergine, CHO-K1 cells; for inhibition at 0.1 µM: compound at 0.1 μM, read-out: Percent Inhibition of ligand binding, Serotonin (0.1 μM) 5-HT2C; for inhibition at 1 µM: compound at 1 μM, read-out: Percent Inhibition of ligand binding, Serotonin (1 μM) 5-HT2C
T1 construct: expressed in transfected cells; host or cells: Chinese hamster ovary (CHO-K1) cells
T1 sequence (P28335 33-458): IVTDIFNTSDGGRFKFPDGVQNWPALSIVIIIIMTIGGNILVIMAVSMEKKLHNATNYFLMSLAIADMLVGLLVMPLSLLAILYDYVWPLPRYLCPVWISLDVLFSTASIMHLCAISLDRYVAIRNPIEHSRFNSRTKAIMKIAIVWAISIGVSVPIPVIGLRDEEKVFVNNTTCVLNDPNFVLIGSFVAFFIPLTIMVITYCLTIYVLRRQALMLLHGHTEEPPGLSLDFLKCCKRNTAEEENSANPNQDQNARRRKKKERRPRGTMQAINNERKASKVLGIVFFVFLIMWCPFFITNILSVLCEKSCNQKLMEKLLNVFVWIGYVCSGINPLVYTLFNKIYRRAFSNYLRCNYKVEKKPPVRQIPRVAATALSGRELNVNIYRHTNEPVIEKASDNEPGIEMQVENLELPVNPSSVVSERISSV
Method: as §1, with “1” for “0.16”, “[^3H]Mesulergine” for “[^3H]Spiperone”, “60” for “120”, “1” for “10”, “Mianserin.” for “Haloperidol.”, “4.” for “3.”

[3] = biological target: T2, human recombinant adrenergic α2C receptor (Homo sapiens, UniProt P18825); assay: Adrenergic α2C radioligand binding assay ([3H]MK-912); settings: compound at 0.1 μM; 1 nM [3H]MK-912; insect Sf9 cells; read-out: Percent Inhibition of ligand binding, Adrenergic (0.1 μM) a2C
T2 construct: expressed in transfected cells; host or cells: insect Sf9 cells
T2 sequence (P18825 1-462): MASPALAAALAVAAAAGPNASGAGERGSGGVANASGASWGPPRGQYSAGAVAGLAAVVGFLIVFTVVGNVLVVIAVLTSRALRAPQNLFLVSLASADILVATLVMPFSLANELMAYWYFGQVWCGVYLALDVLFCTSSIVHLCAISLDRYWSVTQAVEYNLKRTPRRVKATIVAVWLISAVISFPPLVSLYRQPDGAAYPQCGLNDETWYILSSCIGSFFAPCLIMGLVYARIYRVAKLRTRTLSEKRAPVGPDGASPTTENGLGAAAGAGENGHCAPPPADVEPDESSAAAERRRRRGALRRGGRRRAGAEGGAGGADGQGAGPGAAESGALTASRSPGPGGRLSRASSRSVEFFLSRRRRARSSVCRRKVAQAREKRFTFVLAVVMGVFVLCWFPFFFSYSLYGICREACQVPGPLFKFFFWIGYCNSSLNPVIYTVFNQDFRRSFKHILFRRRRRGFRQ
Method: To evaluate in radioligand binding assays the activity of compounds of the invention, human recombinant adrenergic α2C receptor expressed in insect Sf9 cells (Uhlen S et al. J. Pharmacol. Exp. Ther. 271:1558, 1994) in a modified Tris-HCl buffer (50 mM Tris-HCl, pH 7.4, 12.5 mM MgCl2, 2 mM EDTA) is used. Compounds of the invention are incubated with 1 nM [^3H]MK-912 for 60 min at 25° C. Non-specific binding is estimated in the presence of 10 μM WB-4101. Receptor proteins are filtered and washed, the filters are then counted to determine [^3H]MK-912 specifically bound. Compounds are screened at 1 μM or lower, using 1% DMSO as vehicle. Compounds of the invention are tested in this biochemical assay and percent inhibition of specific binding is determined.

[4] = biological target: T3, human recombinant histamine H2 receptor (Homo sapiens, UniProt P25021); assay: Histamine H2 radioligand binding assay ([125I]Aminopotentidine); settings: compound at 1 μM; 0.1 nM [125I]Aminopotentidine; receptor expressed in CHO-K1 cells
T3 construct: expressed in transfected cells; host or cells: Chinese hamster ovary (CHO) K1 cells
T3 sequence (P25021 whole entry): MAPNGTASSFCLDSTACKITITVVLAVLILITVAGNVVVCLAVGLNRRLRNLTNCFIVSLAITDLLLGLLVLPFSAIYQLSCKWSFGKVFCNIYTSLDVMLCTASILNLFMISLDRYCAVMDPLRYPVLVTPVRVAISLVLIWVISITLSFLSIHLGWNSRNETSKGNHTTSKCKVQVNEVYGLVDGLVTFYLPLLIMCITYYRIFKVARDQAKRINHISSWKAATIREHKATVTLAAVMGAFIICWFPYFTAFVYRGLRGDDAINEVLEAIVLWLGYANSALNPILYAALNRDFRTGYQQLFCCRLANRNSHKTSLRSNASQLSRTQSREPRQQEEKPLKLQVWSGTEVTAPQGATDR
Method: To evaluate in radioligand binding assays the activity of compounds of the invention, human recombinant histamine H2 receptor expressed in Chinese hamster ovary (CHO) K1 cells (Ruat, M., Proc. Natl. Acad. Sci. USA. 87(5):1658, 1990) in a 50 mM Phosphate buffer, pH 7.4 was used. Compounds of the invention were incubated with 0.1 nM [^125I]Aminopotentidine for 120 min at 25° C. Non-specific binding was estimated in the presence of 3 μM Tiotidine. Receptor proteins were filtered and washed, the filters were then counted to determine [^125I]Aminopotentidine specifically bound. Compounds were screened at 1 μM or lower, using 1% DMSO as vehicle. Biochemical assay results are presented as the percent inhibition of specific binding in Table 2.

Sequence of human recombinant dopamine D2L receptor (P14416 whole entry): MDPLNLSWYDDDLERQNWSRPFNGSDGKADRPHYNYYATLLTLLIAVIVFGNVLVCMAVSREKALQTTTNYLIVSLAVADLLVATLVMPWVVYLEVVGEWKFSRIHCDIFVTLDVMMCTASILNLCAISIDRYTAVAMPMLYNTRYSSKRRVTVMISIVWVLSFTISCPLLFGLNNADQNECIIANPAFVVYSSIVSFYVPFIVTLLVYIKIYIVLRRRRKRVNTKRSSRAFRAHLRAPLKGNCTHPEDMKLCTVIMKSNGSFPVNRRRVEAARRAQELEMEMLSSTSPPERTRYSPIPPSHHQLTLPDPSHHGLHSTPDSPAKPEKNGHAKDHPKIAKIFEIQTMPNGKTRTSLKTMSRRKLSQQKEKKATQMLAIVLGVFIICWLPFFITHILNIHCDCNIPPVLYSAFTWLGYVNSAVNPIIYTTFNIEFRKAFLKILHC

Row | SMILES | inhibition at 1 µM [1] [%] | inhibition at 0.1 µM [2] [%] | inhibition at 0.1 µM [3] [%] | inhibition at 1 µM [2] [%] | inhibition at 1 µM [4] [%]
1 | CC[C@@](O)(Cn1c2c(c3cc(C)ccc31)CN(C)CC2)c1ccncc1 [Compound 1-62, (S)-1-(2,8-Dimethyl-3,4-dihydro-1H-pyrido[4,3-b]indol-5(2H)-yl)-2-(pyridine-4-yl)butan-2-ol] | 9 | 33 | -5 |  | 
2 | CCCC[C@@](O)(Cn1c2c(c3cc(Cl)ccc31)CN(C)CC2)c1ccc(F)cc1 [Compound 1-67, (S)-1-(8-chloro-2-methyl-3,4-dihydro-1H-pyrido[4,3-b]indol-5(2H)-yl)-2-(4-fluorophenyl)hexan-2-ol] | 20 | 51 | 13 |  | 
3 | Cc1ccc2c(c1)c1c(n2CC(=O)c2ccc(F)cc2)CCN(C)C1 [Compound 1-39, 2-(2,8-dimethyl-3,4-dihydro-1H-pyrido[4,3-b]indol-5(2H)-yl)-1-(4-fluorophenyl)ethanone] | 57 |  |  | 104 | 66
4 | CN1CCc2c(c3cc(Cl)ccc3n2CC(=O)c2ccc(F)cc2)C1 [Compound 1-37, 2-(8-chloro-2-methyl-3,4-dihydro-1H-pyrido[4,3-b]indol-5(2H)-yl)-1-(4-fluorophenyl)ethanone] | 85 |  |  | 97 | 80
5 | Cc1ccc2c(c1)c1c(n2CC(O)c2ccncc2)CCN(C)C1 (centres unmarked) [Compound 1-8, 2-(2,8-dimethyl-3,4-dihydro-1H-pyrido[4,3-b]indol-5(2H)-yl)-1-(pyridin-4-yl)ethanol] |  |  | 5 |  | 
6 | CC[C@@](O)(Cn1c2c(c3cc(C)ccc31)CN(C)CC2)c1ccc(F)cc1 [Compound 1-66, (S)-1-(2,8-dimethyl-3,4-dihydro-1H-pyrido[4,3-b]indol-5(2H)-yl)-2-(4-fluorophenyl)butan-2-ol] | 6 | 84 | 18 |  | 
7 | Cc1ccc2c(c1)c1c(n2CCc2ccc(C)nc2)CCN(CCC#N)C1 [Compound 1-34, 3-(8-methyl-5-(2-(6-methylpyridin-3-yl)ethyl)-3,4-dihydro-1H-pyrido[4,3-b]indol-2(5H)-yl)propanenitrile] | -4 |  |  | 16 | 0
8 | CN1CCc2c(c3cc(Cl)ccc3n2CC(=O)c2ccccc2)C1 [Compound 1-36, 2-(8-chloro-2-methyl-3,4-dihydro-1H-pyrido[4,3-b]indol-5(2H)-yl)-1-phenylethanone] | 73 |  |  | 94 | 48
9 | Cc1ccc2c(c1)c1c(n2CC(C)(C)c2ccncc2)CCN(C)C1 [Compound 1-49, 2,8-dimethyl-5-(2-methyl-2-(pyridin-4-yl)propyl)-2,3,4,5-tetrahydro-1H-pyrido[4,3-b]indole] | 54 | 96 | 43 |  | 
10 | Cc1ccc2c(c1)c1c(n2CCc2ccc(C)nc2)CCN(CC(F)(F)F)C1 [Compound 1-65, 8-methyl-5-(2-(6-methylpyridin-3-yl)ethyl)-2-(2,2,2-trifluoroethyl)-2,3,4,5-tetrahydro-1H-pyrido[4,3-b]indole] | 12 | 6 | -1 |  | 
11 | CCCC[C@](O)(Cn1c2c(c3cc(Cl)ccc31)CN(C)CC2)c1ccc(F)cc1 [Compound 1-61, (R)-1-(8-Chloro-2-methyl-3,4-dihydro-1H-pyrido[4,3-b]indol-5(2H)-yl)-2-(4-fluorophenyl)hexan-2-ol] | 14 | 88 | 11 |  | 
12 | Cc1ccc2c(c1)c1c(n2CCc2ccc(CCCN)nc2)CCN(C)C1 [Compound 1-40, 3-(5-(2-(2,8-dimethyl-3,4-dihydro-1H-pyrido[4,3-b]indol-5(2H)-yl)ethyl)pyridin-2-yl)propan-1-amine] | 3 |  |  | 91 | 18
13 | CN1CCc2c(c3cc(Cl)c(Cl)cc3n2CC(C)(O)c2ccncc2)C1 (centres unmarked) [Compound 1-17, 1-(7,8-dichloro-2-methyl-3,4-dihydro-1H-pyrido[4,3-b]indol-5(2H)-yl)-2-(pyridin-4-yl)propan-2-ol] |  |  | 39 |  | 
14 | COc1ccc([C@](C)(O)Cn2c3c(c4cc(C)ccc42)CN(C)CC3)cc1 [Compound 1-20, (S)-1-(2,8-Dimethyl-3,4-dihydro-1H-pyrido[4,3-b]indol-5(2H)-yl)-2-(4-methoxyphenyl)propan-2-ol] |  |  | 28 |  | 
15 | CC[C@](O)(Cn1c2c(c3cc(C)ccc31)CN(C)CC2)c1ccc(F)cc1 [Compound 1-60, (R)-1-(2,8-Dimethyl-3,4-dihydro-1H-pyrido[4,3-b]indol-5(2H)-yl)-2-(4-fluorophenyl)butan-2-ol] | -14 | 67 | 9 |  | 
16 | Cc1ccc2c(c1)c1c(n2CC(=O)c2ccccc2)CCN(C)C1 [Compound 1-35, 2-(2,8-dimethyl-3,4-dihydro-1H-pyrido[4,3-b]indol-5(2H)-yl)-1-phenylethanone] | 4 |  |  | 75 | 11
17 | Cc1ccc2c(c1)c1c(n2CC(C)c2ccncc2)CCN(C)C1 (centres unmarked) [Compound 1-46, 2,8-dimethyl-5-(2-(pyridin-4-yl)propyl)-2,3,4,5-tetrahydro-1H-pyrido[4,3-b]indole] | 37 | 83 | 22 |  | 
18 | CN1CCc2c(c3cc(Cl)ccc3n2CC(O)c2ccncc2)C1 (centres unmarked) [Compound 1-11, 2-(8-chloro-2-methyl-3,4-dihydro-1H-pyrido[4,3-b]indol-5(2H)-yl)-1-(pyridin-4-yl)ethanol] |  |  | 26 |  | 
19 | CC[C@](O)(Cn1c2c(c3cc(C)ccc31)CN(C)CC2)c1ccncc1 [Compound 1-63, (R)-1-(2,8-Dimethyl-3,4-dihydro-1H-pyrido[4,3-b]indol-5(2H)-yl)-2-(pyridine-4-yl)butan-2-ol] | 14 | 25 | 4 |  | 
20 | Cc1ccc2c(c1)c1c(n2CC(C)(O)c2ccc(O)cc2)CCN(C)C1 (centres unmarked) [Compound 1-15, 4-(1-(2,8-dimethyl-3,4-dihydro-1H-pyrido[4,3-b]indol-5(2H)-yl)-2-hydroxypropan-2-yl)phenol] |  |  | 5 |  | 
